The record followed here is PubChem BioAssay AID463199 (Broad Institute, 2010).

Activity calls are given as the source filed them.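 How the source made its calls: active means AC50, the dose giving half-maximal effect, exceeds a fixed cutoff for a compound that rescues yeast growth under heat; inactive means the rest, inconclusive results apart.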 Bounds are passed on as bounds.

The assay deals with S. cerevisiae Burl-1 ts mutant growth, BacTiter-Glo, 38.5C 24 h. Nature of the assay: growth induction of Burl-1 ts yeast mutant, dose response, counter-screen for SUMOylation pathway inhibitor project, whole organism, S. cerevisiae, luminescence (AID 463199).
For the compound `CN(C)c1ccc2nc3ccc(=[N+](C)C)cc-3sc2c1`, the AC50 was > 42 µM (inactive).

On to `Cc1ccc(CNC(=O)CCNS(=O)(=O)c2cccs2)cc1`, for which the AC50 is > 42 µM (inactive).

On to `O=C(Nc1ccc(F)cc1)c1ccc(CSc2ccccc2)o1`, for which the AC50 is > 42 µM (inactive). To `COc1nc(-c2ccccc2)ccc1-c1noc(-c2ccccc2)n1` belongs > 42 µM (inactive); to `NS(=O)(=O)c1ccc(CCNC(=O)CN2CCN(c3ccc(F)cc3)CC2)cc1`, > 42 µM (inactive); to `CC(=O)Nc1sc2c(c1C(c1ccc(F)cc1)N1CCOCC1)CCCC2` (centres undefined), > 42 µM (inactive). The value for `Cc1ccccc1-c1nnc(SCc2ccc(F)cc2)o1` was > 42 µM (inactive); that for `CCOC(=O)c1c(C)[nH]c2c1cc(O)c1ccccc12` was > 42 µM (inactive); that for `Cc1ccccc1Nc1c([N+](=O)[O-])ccc2c1=NC1(CCCCC1)N=2` was > 42 µM (inactive). Take `Cc1cc2c(C)ccc(C)c2nc1SCC(=O)c1cccs1`: the AC50 is > 42 µM (inactive). The value for `COCCN1C=C(C(=O)OC)C(c2cc3c(cc2Br)OCO3)C(C(=O)OC)=C1` was > 42 µM (inactive). The value for `C=CC(=O)NC1CC2CCC1(C)C2(C)C` (centres undefined) was > 42 µM (inactive); that for `N#Cc1ccc(Oc2ccc(S(=O)(=O)N3CCCCC3)cn2)cc1` was > 42 µM (inactive). In the case of `Cc1cccc(NC(=S)NCc2ccco2)c1C`, the AC50 is > 42 µM (inactive). The value for `CCN(CC)c1ccc(/C=N/NC(=O)OC(C)(C)C)cc1` was > 42 µM (inactive); that for `CN(C)CCOC(c1ccc(Cl)cc1)c1ccccn1` (centres undefined) was > 42 µM (inactive); that for `Cc1ccc(NC(=O)COc2ccccc2C(=O)NCCN(C)C)cc1` was > 42 µM (inactive). On to `COc1ccc(NC2CCCN(C(=O)CCc3scnc3C)C2)cc1` (centres undefined), for which the AC50 was > 42 µM (inactive). The value for `O=C1CSC(c2ccc(F)c(F)c2)N1c1ccccc1F` (centres undefined) was > 42 µM (inactive). For `Cc1ccc(NC(=O)/C=N/OCC(=O)NCc2ccccc2Cl)cc1`, the AC50 was > 42 µM (inactive). To `CCOc1ccccc1Nc1nnc(SCc2nnc(-c3cc(OC)c(OC)c(OC)c3)o2)s1` belongs > 42 µM (inactive); to `CCOc1ccc(C(=O)c2cccs2)cc1`, > 42 µM (inactive); to `COc1ccc(C(=O)OCC(=O)c2ccc(C)c(S(=O)(=O)N3CCOCC3)c2)cc1OC`, > 42 µM (inactive). The value for `CCOc1ccc(Cn2c(SCCCCC#N)nc3c2c(=O)n(C)c(=O)n3C)cc1OCC` was > 42 µM (inactive); that for `O=S(=O)(c1cccc(-c2nnco2)c1)N1CCCC1` was > 42 µM (inactive); that for `O=C(NNC(=O)C12CC3CC(CC(C3)C1)C2)c1ccccn1` was > 42 µM (inactive).

For the compound `COc1ccc(N2CCN(CCCNC(=O)C(=O)c3c(C)[nH]c4ccccc34)CC2)cc1`, the AC50 is > 21 µM (inactive).

With `Nc1ccc(N2CCN(c3ccc(F)cc3)CC2)cc1`, the AC50 is > 42 µM (inactive).

Turning to `C[C@@]12C(=O)Nc3ccc(F)cc3C(=O)N1[C@H]1c3cc(Cl)ccc3OC[C@@H]1[C@@H]2c1ccccc1`, the AC50 was > 42 µM (inactive). To `CC(C)(C)CC(=O)Nc1cc(S(=O)(=O)N2CCOCC2)ccc1N1CCCC1` belongs > 42 µM (inactive); to `O=C(OCC(=O)N1CCN(c2ccccc2)CC1)c1nc(Cl)ccc1Cl`, > 42 µM (inactive). On to `CN(CC(=O)Nc1cccc(F)c1)CC(=O)Nc1cccc(S(N)(=O)=O)c1`, for which the AC50 was > 42 µM (inactive).

Turning to `COc1cccc(/C=N/NC(=O)CCn2cnc3ccccc32)c1`, the AC50 is > 42 µM (inactive). As to `Cc1c(N=Cc2cc(Br)cc(Br)c2O)cccc1C(=O)O`, the AC50 was > 42 µM (inactive).

For `COc1ccc(NC(=O)CN(C)C(=O)/C=C/c2cn(-c3ccccc3)nc2-c2ccc(C)cc2)cc1`, the AC50 is > 42 µM (inactive). The value for `COCCCNC(=O)c1cc(C(=O)c2c(-c3c(Cl)cccc3Cl)noc2C)c[nH]1` was > 42 µM (inactive); that for `Cc1cc(C)c(NC(=O)CCN2CCN(Cc3ccccc3)CC2)c(C)c1` was > 42 µM (inactive); that for `CCCCCOC(=O)C1=C(C)N(C)C(=O)NC1c1cc(Br)c(O)c(OC)c1` (centres undefined) was > 42 µM (inactive). To `O=S(=O)(O)c1ccc(N=NNc2ccc(Br)cc2)cc1` belongs > 42 µM (inactive); to `NC(=O)c1nsc(C(=O)N(Cc2ccc(F)cc2)C(C(=O)NC2CCCC2)c2ccco2)c1N` (centres undefined), > 42 µM (inactive); to `COc1ccc(CN2C(=O)C(=O)N(CC(N)=O)C2=O)cc1`, > 42 µM (inactive). In the case of `Cc1ccc(SCCC(=O)Nc2ccc(OCc3ccccc3)cc2)cc1`, the AC50 was > 42 µM (inactive). The value for `COC(=O)c1ccc(CSc2nnnn2-c2ccccc2)o1` was > 42 µM (inactive); that for `CCN(CC)CCCN1C(=O)C(=O)/C(=C(/O)c2ccccc2)C1c1cc(OC)ccc1OC` (centres undefined) was > 42 µM (inactive); that for `Cc1ccccc1C(=O)NN(C)c1nc2ccccc2nc1C(F)(F)F` was > 42 µM (inactive). On to `COc1ccc(CCC(=O)NNC(=S)Nc2cccc(C(C)=O)c2)cc1`, for which the AC50 was > 42 µM (inactive). Regarding `CCOC(=O)N1CCN(C(=O)c2ccc(CS(=O)(=O)c3c(Cl)cccc3Cl)o2)CC1`, the AC50 was > 42 µM (inactive). To `O=c1cnc2ccccc2n1Cc1ccccc1C(F)(F)F` belongs > 42 µM (inactive); to `CC1(C)c2[nH]c3ccccc3c2C[C@H]2C(=O)N(Cc3cccc(F)c3)C(=O)N21`, > 42 µM (inactive). To `COCCn1c(C)cc(C(=O)CN2C(=O)NC3(CCCCCCC3)C2=O)c1C` belongs > 42 µM (inactive); to `CN(C)/C(CN1CCCCC1)=C1\N=C(c2ccccc2)OC1=O`, > 42 µM (inactive). The value for `CC1CCN(CCCOc2ccc(OCc3ccccc3)cc2)CC1` was > 42 µM (inactive); that for `Cc1ccc(C(=O)/C=C/Nc2ccccc2C(N)=O)cc1` was > 42 µM (inactive); that for `COc1ccccc1CNCc1cc(OC)c(OC)c(OC)c1` was > 42 µM (inactive). Turning to `O=C(NCc1cccnc1)C1CCN(S(=O)(=O)c2cccnc2)CC1`, the AC50 is > 42 µM (inactive). The value for `Nc1nc(CSc2nnnn2-c2ccc(Cl)cc2)nc(N2CCOCC2)n1` was > 42 µM (inactive); that for `COc1ccc(OC)c(NC(=O)CNC(=O)Cn2ccc3ccccc3c2=O)c1` was > 42 µM (inactive).

On to `O=C(O)C1CCCN1C(=O)c1cncc(Br)c1` (centres undefined), for which the AC50 is > 42 µM (inactive). The value for `Cc1ccnc(NC(=O)c2ccc(Br)s2)c1` was > 42 µM (inactive). As for `Cc1nc2ccc(S(=O)(=O)NC(CC(C)C)C(=O)O)cc2s1` (centres undefined), the AC50 was > 42 µM (inactive). In the case of `CN1C2CCC1CC(OC(=O)c1ccc([N+](=O)[O-])cc1)C2` (centres undefined), the AC50 is > 42 µM (inactive).

In the case of `Cn1c(Cn2nnc3ccccc32)nnc1SCC(=O)c1ccc(F)cc1`, the AC50 is > 42 µM (inactive). The value for `Cc1ccc(-c2[nH]ncc2CNCCc2cnn(-c3ccccc3)c2)cc1C` was > 42 µM (inactive); that for `CC1CC(C)(C)NC(=S)N1CC(=O)NCc1ccc(F)cc1` (centres undefined) was > 42 µM (inactive).

In general, AC50 refers to the concentration giving half of the maximal activity seen.
